Converted amounts (≈) assume the structure as drawn.
Key:
[1] = tested on: Staphylococcus epidermidis; experiment: Antibacterial activity against methicillin-sensitive Staphylococcus epidermidis after 18 to 20 hrs by CLSI-protocol based broth microdilution method; format: functional
Streptococcus pneumoniae = experiment: Antibacterial activity against penicillin-resistant Streptococcus pneumoniae after 18 to 20 hrs by CLSI-protocol based broth microdilution method; format: functional
[2] = tested on: Staphylococcus epidermidis; experiment: Antibacterial activity against methicillin-resistant Staphylococcus epidermidis after 18 to 20 hrs by CLSI-protocol based broth microdilution method; format: functional
[3] = biological target: DNA topoisomerase 2-alpha (Homo sapiens, UniProt P11388); experiment: Inhibition of human topoisomerase-2alpha using catenated DNA as substrate after 30 mins by ethidium bromide-based gel electrophoresis
Staphylococcus aureus [4] = experiment: Antibacterial activity against methicillin-resistant Staphylococcus aureus after 18 to 20 hrs by CLSI-protocol based broth microdilution method; format: functional
DNA gyrase = DNA gyrase (Staphylococcus aureus, UniProt P0A0K8+P20831)
Description: Inhibition of Staphylococcus aureus DNA gyrase supercoiling activity using relaxed pHOT-1 DNA as substrate after 60 mins by ethidium bromide-based gel electrophoresis

Staphylococcus aureus [5] = experiment: Antibacterial activity against methicillin-sensitive Staphylococcus aureus after 18 to 20 hrs by CLSI-protocol based broth microdilution method; format: functional; details: Staphylococcus aureus; read-out: MIC
Streptococcus pyogenes = experiment: Antibacterial activity against Streptococcus pyogenes after 18 to 20 hrs by CLSI-protocol based broth microdilution method; format: functional
[6] = biological target: Voltage-gated inwardly rectifying potassium channel KCNH2 (Homo sapiens, UniProt Q12809); experiment: Inhibition of human ERG expressed in CHO cells in at -80 mV holding potential by automated Qpatch clamp assay; format: cell-based
[7] = Volume of distribution at steady state in Sprague-Dawley rat at 10 mg/kg, iv by LC-MS/MS analysis; format: ADME, organism-based; details: in vivo, read-out: Vdss
[8] = Clearance in Sprague-Dawley rat at 10 mg/kg, iv by LC-MS/MS analysis; format: ADME, organism-based; details: in vivo
[9] = Volume of distribution at steady state in Beagle dog at 2.5 mg/kg, iv by LC-MS/MS analysis; format: ADME, organism-based, Canis lupus familiaris; details: in vivo, read-out: Vdss
[10] = Oral bioavailability in Beagle dog at 5 mg/kg by LC-MS/MS analysis; format: ADME, organism-based, Canis lupus familiaris; details: in vivo
[11] = Cmax in CD1 mouse at 10 mg/kg, po by LC-MS/MS analysis; format: ADME, organism-based; set-up: dose 10 mg/kg, route oral; details: in vivo
[12] = Solubility of the compound in water incubated at 37 degC for 24 hrs by LC/MS/MS analysis; format: physicochemical
[13] = Oral bioavailability in Sprague-Dawley rat at 10 mg/kg by LC-MS/MS analysis; format: ADME, organism-based; details: in vivo
Staphylococcus aureus [14] = experiment: Antibacterial activity against methicillin-sensitive Staphylococcus aureus infected in Kunming mouse dosed subcutaneously at 0.5 and 4.0 hrs postinfection and measured at 7 to 14 days post treatment by Bliss method; format: functional; details: sc
[15] = AUCt in Sprague-Dawley rat at 10 mg/kg, po by LC-MS/MS analysis; format: ADME, organism-based; details: in vivo
Cytochrome P450 3A4 [16] = biological target: T1, Cytochrome P450 3A4 (Homo sapiens, UniProt P08684); experiment: Inhibition of CYP3A4 in human liver microsomes using testosterone as substrate preincubated for 10 mins followed by NADPH addition and measured for 15 mins by LC-MS/MS analysis; format: ADME
[17] = Cmax in Beagle dog at 5 mg/kg, po by LC-MS/MS analysis; format: ADME, organism-based, Canis lupus familiaris; set-up: dose 5 mg/kg, route oral; details: in vivo
[18] = AUCt in Sprague-Dawley rat at 100 mg/kg, po by LC-MS/MS analysis; format: ADME, organism-based; details: in vivo
Neisseria gonorrhoeae = experiment: Antibacterial activity against Neisseria gonorrhoeae after 18 to 20 hrs by CLSI-protocol based agar microdilution method; format: functional
[19] = Cmax in Sprague-Dawley rat at 10 mg/kg, po by LC-MS/MS analysis; format: ADME, organism-based; set-up: dose 10 mg/kg, route oral; details: in vivo
[20] = Tmax in CD1 mouse at 10 mg/kg, po by LC-MS/MS analysis; format: ADME, organism-based; details: in vivo
Staphylococcus aureus [21] = experiment: Antibacterial activity against methicillin-resistant Staphylococcus aureus infected in Kunming mouse dosed subcutaneously at 0.5 and 4.0 hrs postinfection and measured at 7 to 14 days post treatment by Bliss method; format: functional; details: sc
[22] = Solubility of the compound in pH 1.2 gastric juice incubated at 37 degC for 24 hrs by LC/MS/MS analysis; format: physicochemical
[23] = Elimination half life in Sprague-Dawley rat at 10 mg/kg, iv by LC-MS/MS analysis; format: ADME, organism-based; details: in vivo, read-out: beta t1/2 (converted)
Cytochrome P450 2C9 = Cytochrome P450 2C9 (Homo sapiens, UniProt P11712); experiment: Inhibition of CYP2C9 in human liver microsomes using tolbutamide as substrate preincubated for 10 mins followed by NADPH addition and measured for 15 mins by LC-MS/MS analysis; format: ADME
[24] = Elimination half life in Sprague-Dawley rat at 10 mg/kg, po by LC-MS/MS analysis; format: ADME, organism-based; details: in vivo, read-out: beta t1/2 (converted)
[25] = Elimination half life in Beagle dog at 2.5 mg/kg, iv by LC-MS/MS analysis; format: ADME, organism-based, Canis lupus familiaris; details: in vivo, read-out: beta t1/2 (converted)
[26] = Clearance in Beagle dog at 2.5 mg/kg, iv by LC-MS/MS analysis; format: ADME, organism-based, Canis lupus familiaris; details: in vivo
[27] = Oral bioavailability in Sprague-Dawley rat at 100 mg/kg by LC-MS/MS analysis; format: ADME, organism-based; details: in vivo
[28] = Elimination half life in Beagle dog at 5 mg/kg, po by LC-MS/MS analysis; format: ADME, organism-based, Canis lupus familiaris; details: in vivo, read-out: beta t1/2 (converted)
Cytochrome P450 2C19 = Cytochrome P450 2C19 (Homo sapiens, UniProt P33261); experiment: Inhibition of CYP2C19 in human liver microsomes using mephenytoin as substrate preincubated for 10 mins followed by NADPH addition and measured for 15 mins by LC-MS/MS analysis; format: ADME
[29] = AUCt in Sprague-Dawley rat at 10 mg/kg, iv by LC-MS/MS analysis; format: ADME, organism-based; details: in vivo
[30] = AUCt in Beagle dog at 5 mg/kg, po by LC-MS/MS analysis; format: ADME, organism-based, Canis lupus familiaris; details: in vivo
[31] = Elimination half life in CD1 mouse at 10 mg/kg, po by LC-MS/MS analysis; format: ADME, organism-based; details: in vivo, read-out: beta t1/2 (converted)
[32] = AUCt in CD1 mouse at 10 mg/kg, po by LC-MS/MS analysis; format: ADME, organism-based; details: in vivo
[33] = Cmax in Sprague-Dawley rat at 100 mg/kg, po by LC-MS/MS analysis; format: ADME, organism-based; set-up: dose 100 mg/kg, route oral; details: in vivo
[34] = MRT in CD1 mouse at 10 mg/kg, po by LC-MS/MS analysis; format: ADME, organism-based; details: in vivo
Cytochrome P450 2D6 = Cytochrome P450 2D6 (Homo sapiens, UniProt P10635); experiment: Inhibition of CYP2D6 in human liver microsomes using dextromethorphan as substrate preincubated for 10 mins followed by NADPH addition and measured for 15 mins by LC-MS/MS analysis; format: ADME
[35] = Solubility of the compound in pH 6.8 intestinal juice incubated at 37 degC for 24 hrs by LC/MS/MS analysis; format: physicochemical
[36] = Elimination half life in Sprague-Dawley rat at 100 mg/kg, po by LC-MS/MS analysis; format: ADME, organism-based; details: in vivo, read-out: beta t1/2 (converted)
Cytochrome P450 3A4 [37] = biological target: T1, Cytochrome P450 3A4; experiment: Inhibition of CYP3A4 in human liver microsomes using midazolam as substrate preincubated for 10 mins followed by NADPH addition and measured for 15 mins by LC-MS/MS analysis; format: ADME
Cytochrome P450 1A2 = biological target: T2, Cytochrome P450 1A2 (Homo sapiens, UniProt P05177); experiment: Inhibition of CYP1A2 in human liver microsomes using phenacetin as substrate preincubated for 10 mins followed by NADPH addition and measured for 15 mins by LC-MS/MS analysis; format: ADME
T2 sequence (P05177 whole entry): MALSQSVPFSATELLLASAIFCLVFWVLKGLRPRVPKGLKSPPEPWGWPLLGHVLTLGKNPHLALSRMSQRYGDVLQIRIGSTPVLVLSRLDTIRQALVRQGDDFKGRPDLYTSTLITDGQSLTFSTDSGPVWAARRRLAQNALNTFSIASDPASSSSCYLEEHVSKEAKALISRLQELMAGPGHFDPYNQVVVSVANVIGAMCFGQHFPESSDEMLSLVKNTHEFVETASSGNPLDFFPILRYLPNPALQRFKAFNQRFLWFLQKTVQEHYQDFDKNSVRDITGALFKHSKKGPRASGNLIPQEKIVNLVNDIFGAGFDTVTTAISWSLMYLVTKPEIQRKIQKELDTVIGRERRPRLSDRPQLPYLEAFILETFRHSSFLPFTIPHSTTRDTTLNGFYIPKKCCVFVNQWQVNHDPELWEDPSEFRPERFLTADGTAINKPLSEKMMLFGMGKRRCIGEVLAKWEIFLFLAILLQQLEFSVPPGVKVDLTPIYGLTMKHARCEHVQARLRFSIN

[38] = AUCt in Beagle dog at 2.5 mg/kg, iv by LC-MS/MS analysis; format: ADME, organism-based, Canis lupus familiaris; details: in vivo
[39] = Streptococcus pyogenes, read-out: MIC

Sequence of DNA topoisomerase 2-alpha (P11388 whole entry): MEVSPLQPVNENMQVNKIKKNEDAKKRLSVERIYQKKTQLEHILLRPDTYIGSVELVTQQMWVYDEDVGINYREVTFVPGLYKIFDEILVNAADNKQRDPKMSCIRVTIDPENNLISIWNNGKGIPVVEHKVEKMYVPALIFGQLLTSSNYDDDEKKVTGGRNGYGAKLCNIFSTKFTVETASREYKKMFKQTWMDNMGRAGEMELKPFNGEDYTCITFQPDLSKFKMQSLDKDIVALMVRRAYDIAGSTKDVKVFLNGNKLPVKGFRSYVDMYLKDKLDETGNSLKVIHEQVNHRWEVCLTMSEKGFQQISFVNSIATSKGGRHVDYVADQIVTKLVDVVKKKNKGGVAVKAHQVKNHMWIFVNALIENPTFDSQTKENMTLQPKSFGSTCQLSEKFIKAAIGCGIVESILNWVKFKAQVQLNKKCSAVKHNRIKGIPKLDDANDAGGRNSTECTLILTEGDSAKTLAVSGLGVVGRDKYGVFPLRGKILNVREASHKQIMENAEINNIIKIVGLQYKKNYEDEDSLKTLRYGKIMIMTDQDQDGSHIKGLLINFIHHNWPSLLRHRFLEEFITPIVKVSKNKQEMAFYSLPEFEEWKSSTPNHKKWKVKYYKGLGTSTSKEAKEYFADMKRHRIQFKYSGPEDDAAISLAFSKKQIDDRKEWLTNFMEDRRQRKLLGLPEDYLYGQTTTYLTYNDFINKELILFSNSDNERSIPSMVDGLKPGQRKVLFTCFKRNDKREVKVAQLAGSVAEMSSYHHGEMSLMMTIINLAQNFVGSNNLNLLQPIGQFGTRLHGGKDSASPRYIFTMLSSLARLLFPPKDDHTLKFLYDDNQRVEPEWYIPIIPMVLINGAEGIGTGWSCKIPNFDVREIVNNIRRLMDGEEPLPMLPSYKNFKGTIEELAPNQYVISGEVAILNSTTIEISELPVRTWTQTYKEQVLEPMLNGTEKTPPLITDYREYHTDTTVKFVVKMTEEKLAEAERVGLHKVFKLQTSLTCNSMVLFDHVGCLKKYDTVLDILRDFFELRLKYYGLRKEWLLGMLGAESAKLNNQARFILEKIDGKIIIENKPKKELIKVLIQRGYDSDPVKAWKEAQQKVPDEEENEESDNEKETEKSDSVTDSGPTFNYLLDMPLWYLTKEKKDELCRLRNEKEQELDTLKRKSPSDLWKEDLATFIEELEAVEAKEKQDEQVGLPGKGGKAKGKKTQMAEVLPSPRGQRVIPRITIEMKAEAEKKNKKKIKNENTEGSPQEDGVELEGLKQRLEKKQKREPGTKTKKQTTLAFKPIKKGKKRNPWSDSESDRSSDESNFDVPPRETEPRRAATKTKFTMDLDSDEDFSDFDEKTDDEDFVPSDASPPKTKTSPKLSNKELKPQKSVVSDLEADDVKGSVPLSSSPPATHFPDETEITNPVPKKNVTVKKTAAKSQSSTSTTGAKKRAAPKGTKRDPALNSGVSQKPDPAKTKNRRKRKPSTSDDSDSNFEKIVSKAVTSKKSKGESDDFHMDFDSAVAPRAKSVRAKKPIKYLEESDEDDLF
Sequence of DNA gyrase (P0A0K8 whole entry): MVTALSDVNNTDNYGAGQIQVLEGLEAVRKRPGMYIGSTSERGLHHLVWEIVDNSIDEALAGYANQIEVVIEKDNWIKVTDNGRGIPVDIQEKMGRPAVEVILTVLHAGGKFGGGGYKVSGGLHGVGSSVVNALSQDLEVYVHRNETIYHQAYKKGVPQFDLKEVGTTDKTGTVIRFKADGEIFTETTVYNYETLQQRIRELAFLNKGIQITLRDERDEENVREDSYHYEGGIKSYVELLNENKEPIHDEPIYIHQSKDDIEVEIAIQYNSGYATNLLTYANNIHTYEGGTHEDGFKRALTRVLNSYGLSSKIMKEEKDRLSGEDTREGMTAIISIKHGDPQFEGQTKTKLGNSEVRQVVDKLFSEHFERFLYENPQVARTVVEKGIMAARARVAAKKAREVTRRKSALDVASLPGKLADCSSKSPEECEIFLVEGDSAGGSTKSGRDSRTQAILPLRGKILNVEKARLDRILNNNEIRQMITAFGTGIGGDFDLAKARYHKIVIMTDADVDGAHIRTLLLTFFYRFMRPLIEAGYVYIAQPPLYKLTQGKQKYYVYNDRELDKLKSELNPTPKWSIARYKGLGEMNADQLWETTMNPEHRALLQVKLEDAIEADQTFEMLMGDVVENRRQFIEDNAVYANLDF
Sequence of DNA gyrase (P20831 whole entry): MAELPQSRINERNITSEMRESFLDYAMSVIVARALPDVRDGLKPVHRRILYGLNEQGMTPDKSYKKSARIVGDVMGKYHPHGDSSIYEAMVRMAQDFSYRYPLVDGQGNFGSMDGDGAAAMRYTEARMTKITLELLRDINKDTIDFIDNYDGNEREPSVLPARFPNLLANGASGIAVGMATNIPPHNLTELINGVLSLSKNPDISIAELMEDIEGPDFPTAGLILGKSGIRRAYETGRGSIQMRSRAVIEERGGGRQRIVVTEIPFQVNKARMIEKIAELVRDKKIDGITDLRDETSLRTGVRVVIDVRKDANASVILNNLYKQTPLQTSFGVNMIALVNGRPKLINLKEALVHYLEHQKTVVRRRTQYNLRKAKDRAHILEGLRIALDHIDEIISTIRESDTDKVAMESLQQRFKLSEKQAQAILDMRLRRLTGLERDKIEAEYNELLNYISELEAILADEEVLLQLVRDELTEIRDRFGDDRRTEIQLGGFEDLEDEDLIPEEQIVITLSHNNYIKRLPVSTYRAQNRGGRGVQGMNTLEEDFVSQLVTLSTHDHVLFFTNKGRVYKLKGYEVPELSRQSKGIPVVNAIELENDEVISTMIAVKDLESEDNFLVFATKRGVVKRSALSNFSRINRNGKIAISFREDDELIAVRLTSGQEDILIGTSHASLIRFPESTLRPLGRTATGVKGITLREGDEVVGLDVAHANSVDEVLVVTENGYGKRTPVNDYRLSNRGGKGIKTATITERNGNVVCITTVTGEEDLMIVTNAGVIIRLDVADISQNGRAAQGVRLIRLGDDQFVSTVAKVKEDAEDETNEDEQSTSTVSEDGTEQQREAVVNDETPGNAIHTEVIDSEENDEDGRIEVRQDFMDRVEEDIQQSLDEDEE
T1 sequence (P08684 whole entry): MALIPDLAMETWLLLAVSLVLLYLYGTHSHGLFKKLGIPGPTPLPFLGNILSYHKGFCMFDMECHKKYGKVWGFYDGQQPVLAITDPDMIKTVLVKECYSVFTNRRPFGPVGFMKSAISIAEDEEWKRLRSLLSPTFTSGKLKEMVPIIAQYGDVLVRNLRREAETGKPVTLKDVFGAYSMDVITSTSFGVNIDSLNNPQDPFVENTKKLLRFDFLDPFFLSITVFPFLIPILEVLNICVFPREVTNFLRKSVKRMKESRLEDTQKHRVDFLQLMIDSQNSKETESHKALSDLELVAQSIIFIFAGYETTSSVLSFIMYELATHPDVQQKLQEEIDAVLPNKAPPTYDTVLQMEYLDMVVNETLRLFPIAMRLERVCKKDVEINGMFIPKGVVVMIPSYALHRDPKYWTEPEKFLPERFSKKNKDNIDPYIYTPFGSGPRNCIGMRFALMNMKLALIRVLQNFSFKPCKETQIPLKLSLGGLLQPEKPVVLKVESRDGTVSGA
Sequence of Voltage-gated inwardly rectifying potassium channel KCNH2 (Q12809 whole entry): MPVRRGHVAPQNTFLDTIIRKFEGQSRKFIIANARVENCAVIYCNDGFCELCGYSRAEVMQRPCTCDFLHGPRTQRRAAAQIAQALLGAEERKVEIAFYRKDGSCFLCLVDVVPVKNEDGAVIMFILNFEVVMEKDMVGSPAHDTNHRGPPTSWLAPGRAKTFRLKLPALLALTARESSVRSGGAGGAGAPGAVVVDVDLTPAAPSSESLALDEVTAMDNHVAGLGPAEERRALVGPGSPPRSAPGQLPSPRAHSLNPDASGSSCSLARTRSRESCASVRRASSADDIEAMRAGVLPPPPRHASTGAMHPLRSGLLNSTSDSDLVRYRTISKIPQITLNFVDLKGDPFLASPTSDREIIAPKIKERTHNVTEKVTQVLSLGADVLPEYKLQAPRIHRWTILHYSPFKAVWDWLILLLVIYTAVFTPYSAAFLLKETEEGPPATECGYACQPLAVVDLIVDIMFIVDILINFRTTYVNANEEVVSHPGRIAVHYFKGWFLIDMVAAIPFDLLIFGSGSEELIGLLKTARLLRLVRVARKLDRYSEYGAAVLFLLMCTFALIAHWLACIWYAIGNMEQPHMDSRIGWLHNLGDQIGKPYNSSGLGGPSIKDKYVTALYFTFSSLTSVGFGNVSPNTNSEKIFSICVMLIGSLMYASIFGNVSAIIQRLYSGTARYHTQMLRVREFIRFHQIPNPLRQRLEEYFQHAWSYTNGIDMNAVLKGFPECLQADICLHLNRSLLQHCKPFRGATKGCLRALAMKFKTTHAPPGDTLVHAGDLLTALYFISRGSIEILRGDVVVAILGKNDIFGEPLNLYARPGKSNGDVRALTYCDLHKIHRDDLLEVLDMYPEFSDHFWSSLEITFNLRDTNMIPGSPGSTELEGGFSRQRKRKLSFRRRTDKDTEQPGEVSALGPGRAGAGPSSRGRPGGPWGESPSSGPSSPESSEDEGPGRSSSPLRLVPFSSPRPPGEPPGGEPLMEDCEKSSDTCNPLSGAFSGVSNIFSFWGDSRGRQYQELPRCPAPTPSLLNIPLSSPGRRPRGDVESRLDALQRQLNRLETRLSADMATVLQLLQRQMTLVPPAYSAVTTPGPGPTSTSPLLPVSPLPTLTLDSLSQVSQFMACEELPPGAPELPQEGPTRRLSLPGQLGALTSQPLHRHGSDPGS

C[C@@H]1CN2c3c(cc4c(N5CC6(CCC6)OC5=O)noc4c3F)CC3(C(=O)NC(=O)NC3=O)[C@H]2[C@H](C)O1
MIC [1]: 0.06 to 0.25 µg/mL (≈ 0.117 to 0.487 µM)
MIC (Streptococcus pneumoniae): 0.25 to 1 µg/mL (≈ 0.487 to 1.95 µM)
MIC [2]: 0.03 to 0.25 µg/mL (≈ 0.0584 to 0.487 µM)
IC50 [3]: > 200 µM
MIC (Staphylococcus aureus [4]): 0.06 to 1 µg/mL (≈ 0.117 to 1.95 µM)
IC50 (DNA gyrase): 15.6 µM
MIC (Staphylococcus aureus [5]): 0.125 to 0.25 µg/mL (≈ 0.243 to 0.487 µM)
MIC (Streptococcus pyogenes; [39]): 0.25 to 0.5 µg/mL (≈ 0.487 to 0.974 µM)

CC[C@H]1CN(c2noc3c(F)c4c(cc23)CC2(C(=O)NC(=O)NC2=O)[C@H]2[C@H](C)O[C@H](C)CN42)C(=O)S1
MIC [2]: < 0.03 µg/mL
IC50 [3]: 128 µM
MIC (Staphylococcus aureus [4]): < 0.03 µg/mL
IC50 (DNA gyrase): 9.1 µM
MIC (Staphylococcus aureus [5]): < 0.03 µg/mL
MIC (Streptococcus pyogenes; [39]): < 0.03 µg/mL

C[C@@H]1CN2c3c(cc4c(N5CC6(CC6)OC5=O)noc4c3F)CC3(C(=O)NC(=O)NC3=O)[C@H]2[C@H](C)O1
IC50 [6]: > 40 µM
Vd [7]: 0.482 L/kg
clearance [8]: 1.57 mL/min/kg
Vd [9]: 1 L/kg
bioavailability [10]: 96.6%
Cmax [11]: 2580 ng/mL
solubility at 24 h [12]: 277 µM (≈ 138 µg/mL)
bioavailability [13]: 22.6%
ED50 (Staphylococcus aureus [14]): 8.37 mg/kg
IC50 [3]: > 200 µM
AUC(0-t) [15]: 23600 ng·h/mL
IC50 (Cytochrome P450 3A4 [16]): > 25 µM
Cmax [17]: 2860 ng/mL
IC50 (DNA gyrase): 7.8 µM
AUC(0-t) [18]: 478000 ng·h/mL
MIC50 (Neisseria gonorrhoeae): 0.06 µg/mL (≈ 0.12 µM)
MIC90 (Neisseria gonorrhoeae): 0.125 µg/mL (≈ 0.25 µM)
Cmax [19]: 2260 ng/mL
Tmax [20]: 2.67 h
ED50 (Staphylococcus aureus [21]): 3.87 mg/kg
solubility at 24 h [22]: 151 µM (≈ 75.4 µg/mL)
MIC (Staphylococcus aureus [5]): ≤ 0.03 µg/mL
half-life [23]: 3.82 h
IC50 (Cytochrome P450 2C9): > 25 µM
half-life [24]: 3.71 h
half-life [25]: 3.49 h
clearance [26]: 4.91 mL/min/kg
bioavailability [27]: 45.8%
half-life [28]: 3.65 h
IC50 (Cytochrome P450 2C19): > 25 µM
AUC(0-t) [29]: 104000 ng·h/mL
AUC(0-t) [30]: 17500 ng·h/mL
half-life [31]: 6.2 h
AUC(0-t) [32]: 24200 ng·h/mL
Cmax [33]: 35400 ng/mL
MRT [34]: 8.94 h
IC50 (Cytochrome P450 2D6): > 25 µM
solubility at 24 h [35]: 204 µM (≈ 102 µg/mL)
MIC (Streptococcus pyogenes): <0.03 µg/mL
half-life [36]: 5.58 h
IC50 (Cytochrome P450 3A4 [37]): > 25 µM
IC50 (Cytochrome P450 1A2): 13 µM
AUC(0-t) [38]: 9100 ng·h/mL

COc1cccc2c1C(=O)c1c(O)c3c(c(O)c1C2=O)C[C@@](O)(C(=O)CO)C[C@@H]3O[C@H]1C[C@H](N)[C@H](O)[C@H](C)O1 [DOXORUBICIN]
IC50 [3]: 0.6 µM

C[C@@H]1CN2c3c(cc4c(N5CCSC5=O)noc4c3F)CC3(C(=O)NC(=O)NC3=O)[C@H]2[C@H](C)O1
IC50 [6]: > 40 µM
MIC [1]: < 0.03 µg/mL
MIC (Streptococcus pneumoniae): ≤ 0.03 µg/mL
MIC [2]: < 0.03 µg/mL
MIC (Staphylococcus aureus [4]): < 0.03 µg/mL
MIC50 (Neisseria gonorrhoeae): 0.03 µg/mL (≈ 0.0613 µM)
MIC90 (Neisseria gonorrhoeae): 0.06 µg/mL (≈ 0.123 µM)
MIC (Staphylococcus aureus [5]): ≤ 0.03 µg/mL
MIC (Streptococcus pyogenes; [39]): < 0.03 µg/mL

CC(=O)NC[C@H]1CN(c2ccc(N3CCOCC3)c(F)c2)C(=O)O1 [LINEZOLID]
ED50 (Staphylococcus aureus [14]): 4.53 mg/kg
ED50 (Staphylococcus aureus [21]): 4.83 mg/kg
